Test results reported in EP0422134B1, “5-HT SELECTIVE AGENTS” (ABBOTT LABORATORIES, priority 1988, dated 1990).
Where a name gives a salt, the structure may show the parent alone.

What was measured:
[1] = molecular target: 5-HT1; assay: Radioligand binding, tritiated 5-HT, rat frontal cortex homogenate (total 5-HT1); settings: displacement of tritiated 5-HT
Protocol: Male Sprague-Dawley rats (150-200 g) were sacrificed and the brains were rapidly removed and placed on ice. The frontal cortext, including the portion immediately above the striatum and part of the parietal cortex were dissected. Tissues from 6-10 rats were pooled and homogenized in at least 40 volumes of tris-HCI buffer (0.05 M, pH 7.4) using a Brinkman Polytron (setting 5 for 20 seconds). This homogenate was centrifuged (48,000 G for 10 minutes), the pellet resuspended, and the process repeated three more times. Between the second and third washes, the tissue homogenate was incubated for 10 minutes at 37°C. The final pellet was resuspended in 100 volumes of TRIS buffer for use in the binding assay.
Radioligand binding affinity for subtypes of the serotonin receptor was determined by the method of Pedigo, Yamamura, and Nelson, op. cit. Tissue homogenate (0.5 mL) from rat frontal cortex, together with various concentrations of tritiated 5-HT and test compounds were added to glass tubes containing modified tris-HCI buffer to obtain, in each case, a final volume of 2 mL and having the following compositions: 5.7 mM ascorbate, 10 micromolar pargyline, 4mM CaCl2, 50 mM TRIS buffer; pH 7.4 at 37°C.
Each mixture was incubated for 15 minutes at 37°C and then vacuum filtered through Whatman GF/B filters followed by three 5 mL washes with cold TRIS buffer. Radioactivity was extracted overnight in 3 mL of scintillation liquid and measured by liquid scintillation spectrometry (50% efficiency).
Binding parameters for saturation and drug displacement studies were calculated by Scatchard analysis and from Hill plots, respectively.

[2] = tested on: spontaneously hypertensive (SH) rat; assay: Blood pressure in spontaneously hypertensive rats (tail cuff), oral dosing; type: in vivo; settings: % change in blood pressure
Protocol: In another study, a group of spontaneously hypertensive male rats were trained to be restrained in a wire mesh cylinder in a warming box, at least two training cycles being conducted before testing. The rats were warmed for about one-hour prior to blood pressure measurement, the warming box being maintained at a constant temperature of 36°C. An occluding cuff attached to a programmed sphygmomanometer was placed near the base of the tail of each rat and the pressure of the cuff was increased automatically from 0 to 250 millimeters of mercury at a rate of 10 mm Hg pressure per second. The total time for each cycle of inflation and deflation of the cuff was 50 seconds and the interval between cycles was one minute A photocell, placed distally to the cuff, recorded the pulses due to the forward motion of blood flow with each heart beat. As the pressure in the cuff increased, the pulse disappeared completely at the point where the cuff pressure equalled and exceeded the arterial blood pressure. The pulse reappeared during deflation at approximately the same pressure. Five interference free signals were recorded for each rat. Rats with a blood pressure of 180 mm Hg or more during the control period were used in the study.
Blood pressure and heart rate readings were recorded on a Model VII Grass polygraph at various intervals after administration of the test compound. […] For the in vivo test data, SHR refers to spontaneously hypertensive rats, dosed in milligrams per kilogram (mpk), with the data being expressed in the Table in +% changes at a particular dosage range.

Row | IC50 [1] | Compound | In Vivo Data SHR (mpk, p.o. dose) ([2]; 30 mg/kg p.o.) | In Vivo Data SHR (mpk, p.o. dose) ([2]; 10 mg/kg p.o.)
1 | 279 nM | COc1cccc2c1[C@H]1CCN(CCCN3C(=O)CC4(CCCC4)CC3=O)C[C@@H]1C2 (relative stereo) [Example 50, trans-2-(3-(3,3-tetramethylene)glutarimidyl)propyl-5-methoxy-2,3,4,4a,9,9a-hexahydro-1 H-indeno [2,1-c]pyridine hydrochloride] | – | –
2 | 60 nM | COc1cccc2c1[C@H]1CCN(CCCCN3C(=O)CC4(CCCC4)CC3=O)C[C@@H]1C2 (relative stereo) [Example 51, trans-2-(4-(3,3-tetramethylene)glutarimidyl)butyl-5-methoxy-2,3,4,4a,9,9a-hexahydro-1H-indeno [2,1-c] pyridine hydrochloride] | -36% at 30 mg/kg | –
3 | 22 nM | COc1cccc2c1[C@H]1CCN(CCCN3C(=O)c4ccccc4S3(=O)=O)C[C@@H]1C2 (relative stereo) [Example 56, trans-2(3-(2-(1,2-benzisothiazolin-3-one-1,1-dioxyde))propyl)-5-methoxy-2,3,4,4a,9,9a-hexahydro-1 H-indeno[2,1-c]pyridine hydrochloride] | – | -18% at 10 mg/kg
4 | 26 nM | COc1cccc2c1[C@H]1CCN(CCCCN3C(=O)c4ccccc4S3(=O)=O)C[C@@H]1C2 (relative stereo) [Example 57, trans-2(4-(2-(1,2-benzisothiazolin-3-one-1,1-dioxyde))butyl)-5-methoxy-2,3,4,4a,9,9a-hexahydro-1H-indeno[2,1-c]pyridine hydrochloride] | -17% at 30 mg/kg | –
5 | 218 nM | COc1cccc2c1C1CN(CCCCN3C(=O)CC4(CCCC4)CC3=O)CC1C2 (centres unmarked) [Example 7, 2-(4-(3,3-tetramethylene)glutarimidyl)butyl-4-methoxy-1,2,3,3a,8,8a-hexahydoindeno[1,2-c]pyrrole hydrochloride] | -28% | -14%
6 | 714 nM | COc1c(Cl)ccc2c1C1CN(CCCCN3C(=O)CC4(CCCC4)CC3=O)CC1C2 (centres unmarked) [Example 8, 2-(4-(3,3-tetramethylene)glutarimidyl)butyl-5-chroro-4-methoxy-1,2,3,3a,8,8a-hexahydroindeno[1,2-c] pyrrole hydrochloride] | -37% at 30 mg/kg | –
7 | 262 nM | Br.O=C(NCCN1CC2Cc3cccc(O)c3C2C1)c1ccc(F)cc1 (centres unmarked) [Example 19, 4-Hydroxy-2-(2-(4-fluorobenzamido)ethyl)-1,2,3,3a,8,8a-hexahydroindeno[1,2-c]pyrrole hydrobromide] | -9% at 30 mg/kg | –
8 | 1840 nM | O=C1CC2(CCCC2)CC(=O)N1CCCCN1CC2Cc3cccc(O)c3C2C1 (centres unmarked) [Example 20, 2-(4-(3,3-tetramethylene)glutarimidyl)butyl-4-hydroxy-1,2,3,3a,8,8a-hexahydroindeno[1,2-c]pyrrole hydrobromide] | – | –
9 | 438 nM | COc1cccc2c1C1CN(CCCCN3C(=O)c4ccccc4S3(=O)=O)CC1C2 (centres unmarked) [Example 21, 4-Methoxy-2-(4-(2-(1,2-benzisothiazolin-3-one1,1-dioxide))butyl)1,2,3,3a,8,8a-hexahydroindeno-[1,2-c]pyrrole hydrochloride] | -28% | -16%
10 | 1090 nM | O=C1c2ccccc2S(=O)(=O)N1CCCCN1CC2Cc3cccc(O)c3C2C1 (centres unmarked) [Example 22, 4-Hydroxy-2-(4-(2-(1.2-benzisothiazolin-3-one-1,1-dioxide))butyl)-1,2,3,3a,8,8a-hexahydroindeno-[1,2-c]pyrrole hydrochloride] | -16% at 30 mg/kg | –
11 | 1730 nM | COc1cccc2c1C1CN(CCCCN3C(=O)CC(C)(C)CC3=O)CC1C2 (centres unmarked) [Example 23, 2-(4-(3,3-dimethyl)glutarimidyl)butyl-4-methoxy-1,2,3,3a,8,8a-hexahydroindeno-[1,2-c]pyrrole hydrochloride] | -12% at 30 mg/kg | –
12 | 404 nM | COc1cccc2c1C1CN(CCCCN3C(=O)c4ccccc4C3=O)CC1C2 (centres unmarked) [Example 24, 4-Methoxy-2-(4-(2-phthalimido)butyl)-1,2,3,3a,8,8a-hexahydroindeno[1,2-c]pyrrole hydrochloride] | – | –
13 | 3300 nM | COc1cccc2c1C1CN(CCCN3C(=O)CC4(CCCC4)CC3=O)CC1C2 (centres unmarked) [Example 26, 2-(3-(3,3-tetramethylene)glutarimidyl)propyl-4-methoxy-1,2,3,3a,8,8a-hexahydroindeno[1,2-c]pyrrole hydrochloride] | -23% at 30 mg/kg | –
14 | 3320 nM | O=C1CC2(CCCC2)CC(=O)N1CCCN1CC2Cc3cccc(O)c3C2C1 (centres unmarked) [Example 27, 2-(3-(3,3-tetramethylene)glutarimidyl)propyl-4-hydroxy-1,2,3,3a,8,8a-hexahydroindeno[1,2-c]pyrrole hydrobromide] | – | –
15 | 722 nM | COc1cccc2c1C1CN(CCCCCN3C(=O)CC4(CCCC4)CC3=O)CC1C2 (centres unmarked) [Example 28, 2-(5-(3,3-tetramethylene)glutarimidyl)pentyl-4-methoxy-1,2,3,3a,8,8a-hexahydroindeno[1,2-c]pyrrole hydrochloride] | – | –
16 | 3630 nM | COc1cccc2c1C1CN(C/C=C\CN3C(=O)CC4(CCCC4)CC3=O)CC1C2 (stereo not drawn) [Example 29, 2-(4-(3,3-tetramethylene)glutarimidyl)-cis-but-2-enyl-4-methoxy-1,2,3,3a,8,8a-hexahydroindeno [1,2-c] pyrrole hydrochloride] | -19% at 30 mg/kg | –
17 | 533 nM | COc1cccc2c1C1CN(C/C=C/CN3C(=O)CC4(CCCC4)CC3=O)CC1C2 (stereo not drawn) [Example 30, 2-(4-(3,3-tetramethylene)glutarimidyl)-trans-but-2-enyl-4-methoxy-1,2,3,3a,8,8a-hexahydroindeno [1,2-c]pyrrole hydrochloride] | -11% at 30 mg/kg | –
18 | 457 nM | COc1cccc2c1C1CN(C[C@H]3COc4ccccc4O3)CC1C2 (stereo partly drawn) [Example 31, 2S-(1,4-benzodioxanyl-2-methyl)-4-methoxy-1,2,3,3a,8,8a-hexahydroindeno[1,2-c]pyrrole hydrochloride] | – | –
19 | 992 nM | COc1cccc2c1C1CN(C[C@@H]3COc4ccccc4O3)CC1C2 (stereo partly drawn) [Example 32, 2R-(1,4-benzodioxanyl-2-methyl)-4-methoxy-1,2,3,3a,8,8a-hexahydroindeno[1,2-c]pyrrole hydrochloride] | – | –
20 | 3120 nM | COc1cccc2c1C1CCN(CCCN3C(=O)CC4(CCCC4)CC3=O)CC1C2 (stereo not drawn) [Example 43, cis-2-(3-(3,3-tetramethylene)glutarimidyl)propyl-5-methoxy-2,3,4,4a,9,9a-hexahydro-1H-indeno[2,1-c] pyridine hydrochloride] | -17.5% at 30 mg/kg | –
21 | 505 nM | COc1cccc2c1C1CCN(CCCCN3C(=O)CC4(CCCC4)CC3=O)CC1C2 (centres unmarked) [Example 44, hydrochloride] | – | –
22 | 1840 nM | O=C1CC2(CCCC2)CC(=O)N1CCCCN1CC2Cc3ccc(Cl)c(O)c3C2C1 (centres unmarked) [Example 52, 2-(4-(3,3-Tetramethylene)glutarimidyl)butyl-5-chloro-4-hydroxy-1,2,3,3a,8,8a-hexahydroindeno[1,2-c]-pyrrole hydrobromide] | -23% at 30 mg/kg | –
23 | 283 nM | COc1cccc2c1C1CN(CCCCN3C(=O)C4C5C=CC(C6C=CC65)C4C3=O)CC1C2 (centres unmarked) [Example 54, 4-Methoxy-2-(4-(3a,4,4a,6a,7,7a-hexahydro-4,7-etheno-1H-cyclobut[flisoindol-1,3-dionyl)-butyl)-1,2,3,3a,8,8a-hexahydroindeno-[1,2-c]pyrrole hydrochloride] | – | –
24 | 43 nM | COc1cccc2c1C1CCN(CCNC(=O)c3ccc(F)cc3)CC1C2 (stereo not drawn) [Example 58, trans-2-(2-(4-fluorobenzamido)ethyl)-5-methoxy-2,3,4,4a,9.9a-hexahydro-1H-indeno[2,1-c]pyridine hydrochloride] | – | -18% at 10 mg/kg
